Test results from US20250051361A1, “5,6,7,8-TETRAHYDRO-2,6-NAPHTHYRIDINE DERIVATIVES AS CANCER THERAPEUTICS” (VRise Therapeutics, Inc., priority 2021, published 2025).
pIC50: −log10 of the molar value. Counter-ions that a name gives are not always drawn.

How the values were obtained:
HPAC cells = assay: In vitro cell proliferation assay in HPAC cell line; format: cell-based; conditions: for inhibition at 3 µM / inhibition at 10 µM: Homo sapiens; for inhibition at 3 µM / % Inhibition of Cell Proliferation HPAC TC1: TC1: Test Concentration of 3 uM; for inhibition at 10 µM: TC2: Test Concentration of 10 uM; for % Inhibition of Cell Proliferation HPAC TC1: 3 µM
Method: (§1) Test 1: In Vitro Cell Proliferation Assay in HPAC and AGS Cell Lines
(§2) Growth inhibition assays was carried out using 10% FBS supplemented media. Cells are to be seeded at a concentration of 2000-3,000 cells/well in a 96-well plate. Test compounds at a concentration range from 0.1 to 30 uM will be added after 24 hours. Growth will be assessed using the MTT or CCK-8 kit for measuring reduction at 0 h (prior to the addition of the test compound) and 72 to 96 hours after the addition of test compound. Absorbance read on a BIO-RAD iMark Microplate or any equivalent micloplate reader at a wavelength of 450 nm to 600 nm. Data will be analyzed and percent inhibition due to the test compound compared to the control is calculated accordingly.

human KRAS G12D protein = biological target: T1, human KRAS G12D protein (Homo sapiens, UniProt P01116, G12D); assay: HTRF-based nucleotide exchange assay detecting GTP binding to K-Ras; format: biochemical; conditions: human KRAS G12D (amino acid 2-169), SOS1 mediated exchange
T1 construct: A human KRAS G12D protein (corresponding to amino acid 2-169)
Method: Test 3: Nucleotide Exchange Assay HTRF-based nucleotide exchange assay detecting GTP binding to K-Ras A human KRAS G12D protein (corresponding to amino acid 2-169) was mixed with a a-GST Tb antibody (1.5× solution) and 10 uL of the solution was added to the reaction wells). Compounds (each 10 concentrations or any other concentration of choice at 3-fold or fold of choice for serial dilutions with a starting concentration of […] or or 100 μM or 50 uM) were then delivered to the reaction wells using acoustic dispenser (Echo, Labcyte) and incubated with the Kras/aGST-Tb antibody for 1-hour at room temperature. […] HTRF based SOS1 mediated exchange of GDP to GTP was measured on a microplate reader […] (BMG Labtech) at an excitation wavelength of 337 nm and emission wavelengths of 665 and 620 nm. No-SOS1 reaction or highest control compound concentration was used as blank and % inhibition was calculated and/or IC50 was determined using Sigmoidal dose response (variable slope) equation.

AGS cells = assay: In vitro cell proliferation assay in AGS cell line; format: cell-based; conditions: Homo sapiens; for inhibition at 3 µM: TC1: Test Concentration of 3 uM; for inhibition at 10 µM: TC2: Test Concentration of 10 uM
Method: as §1, §2

T1 sequence (P01116 2-169 isoform P01116-2 G12D): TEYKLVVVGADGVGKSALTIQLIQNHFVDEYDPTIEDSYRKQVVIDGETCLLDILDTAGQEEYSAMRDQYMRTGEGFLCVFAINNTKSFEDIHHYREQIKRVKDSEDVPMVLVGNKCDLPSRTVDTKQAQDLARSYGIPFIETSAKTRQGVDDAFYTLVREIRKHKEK

Compound | inhibition at 3 µM (HPAC cells) | inhibition at 10 µM (HPAC cells) | inhibition at 3 µM (AGS cells) | inhibition at 10 µM (AGS cells) | other results
N#Cc1c(OCC23CCCN2CCC3)nc(N2[C@@H]3CC[C@H]2CNC3)c2c1CN(c1cccc3cccc(Br)c13)CC2 [Ex 7, 1-((1R,5S)-3,8-diazabicyclo[3.2.1]octan-8-yl)-6-(8-bromonaphthalen-1-yl)-3-((tetrahydro-1H-pyrrolizin-7a(5H)-yl)methoxy)-5,6,7,8-tetrahydro-2,6-naphthyridine-4-carbonitrile TFA salt] | 75 to 100% | 75 to 100% | – | – | –
CN1CCC[C@H]1COc1nc(N2[C@@H]3CC[C@H]2CNC3)c2c(c1C#N)CN(c1cc(O)cc3cccc(Br)c13)CC2 [Ex 15, 1-((1R,5S)-3,8-diazabicyclo[3.2.1]octan-8-yl)-6-(8-bromo-3-hydroxynaphthalen-1-yl)-3-(((S)-1-methylpyrrolidin-2-yl)methoxy)-5,6,7,8-tetrahydro-2,6-naphthyridine-4-carbonitrile Hydrochloride] | ≤ 25% | 75 to 100% | – | – | –
N#Cc1c(OCC23CCCN2C[C@H](F)C3)nc(N2CC3CCC(C2)N3)c2c1CN(Cc1ccccc1)CC2 (stereo partly drawn) [Ex 19, 6-benzyl-1-(3,8-diazabicyclo[3.2.1]octan-3-yl)-3-(((2R)-2-fluorotetrahydro-1H-pyrrolizin-7a(5H)-yl)methoxy)-5,6,7,8-tetrahydro-2,6-naphthyridine-4-carbonitrile Hydrochloride] | ≤ 25% | 75 to 100% | 25 to 50% | 50 to 75% | pIC50 (human KRAS G12D protein): < 6.00
N#Cc1c(OCC2(CN3CCOCC3)CC2)nc(N2C[C@H]3CC[C@@H](C2)N3)c2c1CN(Cc1ccccc1)CC2 [Ex 24, 6-benzyl-1-((1R,5S)-3,8-diazabicyclo[3.2.1]octan-3-yl)-3-((1-(morpholinomethyl)cyclopropyl)methoxy)-5,6,7,8-tetrahydro-2,6-naphthyridine-4-carbonitrile Hydrochloride] | ≤ 25% | 25 to 50% | – | – | pIC50 (human KRAS G12D protein): < 6.00
CN1CCC[C@H]1COc1nc(N2CC3CCC(C2)N3)c2c(c1C#N)CN(Cc1ccccc1)CC2 [Ex 18, 6-benzyl-1-(3,8-diazabicyclo[3.2.1]octan-3-yl)-3-(((S)-1-methylpyrrolidin-2-yl)methoxy)-5,6,7,8-tetrahydro-2,6-naphthyridine-4-carbonitrile Hydrochloride] | ≤ 25% | 25 to 50% | 25 to 50% | 75 to 100% | –
C[C@@H](OCc1ccccc1)[C@H](N)C(=O)N1CCN(c2nc(OC[C@@H]3CCCN3C)c(C#N)c3c2CCN(Cc2ccccc2)C3)CC1 [Ex 23, 6-benzyl-1-(4-(O-benzyl-L-threonyl)piperazin-1-yl)-3-(((S)-1-methylpyrrolidin-2-yl)methoxy)-5,6,7,8-tetrahydro-2,6-naphthyridine-4-carbonitrile Hydrochloride] | ≤ 25% | 50 to 75% | – | – | –
N#Cc1c(OCC23CCCN2CCC3)nc(N2[C@@H]3CC[C@H]2CNC3)c2c1CN(c1cc(O)cc3cccc(Br)c13)CC2 [Ex 9, 1-((1R,5S)-3,8-diazabicyclo[3.2.1]octan-8-yl)-6-(8-bromo-3-hydroxynaphthalen-1-yl)-3-((tetrahydro-1H-pyrrolizin-7a(5H)-yl)methoxy)-5,6,7,8-tetrahydro-2,6-naphthyridine-4-carbonitrile Hydrochloride] | ≤ 25% | 75 to 100% | – | – | –
CN1CCC[C@H]1COc1nc(N2[C@@H]3CC[C@H]2CN(C(=O)OC(C)(C)C)C3)c2c(c1C#N)CN(c1cc(O)cc3ccccc13)CC2 [Ex 4, tert-butyl (1R,5S)-8-(4-cyano-6-(3-hydroxynaphthalen-1-yl)-3-(((S)-1-methylpyrrolidin-2-yl)methoxy)-5,6,7,8-tetrahydro-2,6-naphthyridin-1-yl)-3,8-diazabicyclo[3.2.1]octane-3-carboxylate] | – | – | 75 to 100% | 75 to 100% | –
C#Cc1cccc2cccc(N3CCc4c(N5[C@@H]6CC[C@H]5CNC6)nc(OCC56CCCN5CCC6)c(C#N)c4C3)c12 [Ex 8, 1-((1R,5S)-3,8-diazabicyclo[3.2.1]octan-8-yl)-6-(8-ethynylnaphthalen-1-yl)-3-((tetrahydro-1H-pyrrolizin-7a(5H)-yl)methoxy)-5,6,7,8-tetrahydro-2,6-naphthyridine-4-carbonitrile TFA Salt] | – | 50 to 75% | – | – | % Inhibition of Cell Proliferation HPAC TC1 (HPAC cells; TFA Salt): A (A = ≤25%)
C[C@H]1CNCCN1c1nc(OCC2CCCN2C)c(C#N)c2c1CCN(Cc1ccccc1)C2 (stereo partly drawn) [Ex 75, 6-benzyl-1-((S)-2-methylpiperazin-1-yl)-3-((1-methylpyrrolidin-2-yl)methoxy)-5,6,7,8-tetrahydro-2,6-naphthyridine-4-carbonitrile hydrochloride] | ≤ 25% | ≤ 25% | ≤ 25% | ≤ 25% | –
CN1CCC[C@H]1COc1nc(N2[C@@H]3CC[C@H]2CNC3)c2c(c1C#N)CN(c1cc(O)cc3ccccc13)CC2 [Ex 5, 1-((1R,5S)-3,8-diazabicyclo[3.2.1]octan-8-yl)-6-(3-hydroxynaphthalen-1-yl)-3-(((S)-1-methylpyrrolidin-2-yl)methoxy)-5,6,7,8-tetrahydro-2,6-naphthyridine-4-carbonitrile Hydrochloride] | – | – | 25 to 50% | 75 to 100% | –
C#Cc1cccc2cccc(N3CCc4c(N5[C@@H]6CC[C@H]5CNC6)nc(OCC56CCCN5CCC6)c(C#N)c4C3)c12 [Ex 12, 1-((1R,5S)-3,8-diazabicyclo[3.2.1]octan-8-yl)-6-(8-ethynylnaphthalen-1-yl)-3-((tetrahydro-1H-pyrrolizin-7a(5H)-yl)methoxy)-5,6,7,8-tetrahydro-2,6-naphthyridine-4-carbonitrile Hydrochloride] | – | – | – | – | % Inhibition of Cell Proliferation HPAC TC1 (HPAC cells; Hydrochloride): C (C = >50 to ≤75)
CC(C)[C@@H](N)C(=O)N1CCN(c2nc(OC[C@@H]3CCCN3C)c(C#N)c3c2CCN(Cc2ccccc2)C3)CC1 [Ex 21, 1-(4-(D-valyl)piperazin-1-yl)-6-benzyl-3-(((S)-1-methylpyrrolidin-2-yl)methoxy)-5,6,7,8-tetrahydro-2,6-naphthyridine-4-carbonitrile Hydrochloride] | ≤ 25% | ≤ 25% | – | – | –
CN1CCC[C@H]1COc1nc(N2CC3CCC(C2)N3)c2c(c1C#N)CN(c1cc(O)cc3ccccc13)CC2 [Ex 1, 1-(3,8-diazabicyclo[3.2.1]octan-3-yl)-6-(3-hydroxynaphthalen-1-yl)-3-(((S)-1-methylpyrrolidin-2-yl)methoxy)-5,6,7,8-tetrahydro-2,6-naphthyridine-4-carbonitrile, hydrochloride] | – | – | 25 to 50% | 75 to 100% | –
CN1CCC[C@H]1COc1nc(N2[C@@H]3CC[C@H]2CNC3)c2c(c1C#N)CN(c1cccc3cccc(Br)c13)CC2 [Ex 10, 1-((1R,5S)-3,8-diazabicyclo[3.2.1]octan-8-yl)-6-(8-bromonaphthalen-1-yl)-3-(((S)-1-methylpyrrolidin-2-yl)methoxy)-5,6,7,8-tetrahydro-2,6-naphthyridine-4-carbonitrile Hydrochloride] | 75 to 100% | 75 to 100% | – | – | –
CN1CCC[C@H]1COc1nc(N2CCNC(CC#N)C2)c2c(c1C#N)CN(c1cccc3cccc(Cl)c13)CC2 (stereo partly drawn) [Ex 3, 6-(8-chloronaphthalen-1-yl)-1-(3-(cyanomethyl)piperazin-1-yl)-3-(((S)-1-methylpyrrolidin-2-yl)methoxy)-5,6,7,8-tetrahydro-2,6-naphthyridine-4-carbonitrile hydrochloride] | – | – | 25 to 50% | 75 to 100% | –
CC(C)[C@@H](NC(=O)OC(C)(C)C)C(=O)N1CCN(c2nc(OC[C@@H]3CCCN3C)c(C#N)c3c2CCN(Cc2ccccc2)C3)CC1 [Ex 20, tert-butyl ((R)-1-(4-(6-benzyl-4-cyano-3-(((S)-1-methylpyrrolidin-2-yl)methoxy)-5,6,7,8-tetrahydro-2,6-naphthyridin-1-yl)piperazin-1-yl)-3-methyl-1-oxobutan-2-yl)carbamate] | ≤ 25% | 25 to 50% | – | – | –
C#Cc1cccc2cc(O)cc(N3CCc4c(N5[C@@H]6CC[C@H]5CNC6)nc(OCC56CCCN5CCC6)c(C#N)c4C3)c12 [Ex 14, 1-((1R,5S)-3,8-diazabicyclo[3.2.1]octan-8-yl)-6-(8-ethynyl-3-hydroxynaphthalen-1-yl)-3-((tetrahydro-1H-pyrrolizin-7a(5H)-yl)methoxy)-5,6,7,8-tetrahydro-2,6-naphthyridine-4-carbonitrile Hydrochloride] | ≤ 25% | 50 to 75% | – | – | –
